Measurements as given in patent EP2311482A1, “Osteogenic synthetic BMP-7 peptides, pharmaceutical compositions cell culture medium containing same” (Industry Foundation Of Chonnam National University, priority 2009, dated 2011).
No end group written: not given here.

Test system: cells
Experiment: MTT assay for cytotoxicity
Assay type: cell-based
Details: within a range of used concentrations; FIGS. 3a and 3b

Sequence	cytotoxicity
GQGFSYPYKAVFSTQ [BFP 1, Gly-Gln-Gly-Phe-Ser-Tyr-Pro-Tyr-Lys-Ala-Val-Phe-Ser-Thr-Gln]	neither BFP 1 nor BFP 2 are toxic to cells
VEHDKEFFHPRYHHR [BFP 2, Val-Glu-His-Asp-Lys-Glu-Phe-Phe-His-Pro-Arg-Tyr-His-His-Arg]	neither BFP 1 nor BFP 2 are toxic to cells
